For the experiment, the target named is Cannabinoid receptor 1 (Homo sapiens, UniProt P21554). Description: ChEBML_1680109. From the text:
Agonist activity at human CB1 receptor expressed in mouse AtT-20 cells co expressing GIRK by FLIPR assay

Consider one compound from BindingDB's records for doi:10.1021/acs.jmedchem.7b00155 (University of Bari Aldo Moro, 2017).

pEC50: −log10 of the molar value.

Chain of Cannabinoid receptor 1 (P21554 whole entry): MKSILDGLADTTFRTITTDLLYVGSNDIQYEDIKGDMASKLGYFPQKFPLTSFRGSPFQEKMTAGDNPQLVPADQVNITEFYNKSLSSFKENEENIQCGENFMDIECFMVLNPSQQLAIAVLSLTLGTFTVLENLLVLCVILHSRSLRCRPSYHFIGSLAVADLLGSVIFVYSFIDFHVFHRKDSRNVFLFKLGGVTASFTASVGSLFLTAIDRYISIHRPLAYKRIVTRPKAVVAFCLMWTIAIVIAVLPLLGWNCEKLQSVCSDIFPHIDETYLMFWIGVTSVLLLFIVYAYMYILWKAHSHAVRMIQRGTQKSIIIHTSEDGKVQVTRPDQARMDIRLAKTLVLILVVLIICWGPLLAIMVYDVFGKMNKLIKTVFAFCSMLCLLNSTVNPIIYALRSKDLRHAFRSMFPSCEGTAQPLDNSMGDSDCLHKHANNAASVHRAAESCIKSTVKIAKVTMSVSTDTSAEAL

What is called pEC50 is the EC50 on a negative log10 scale, so that one unit is a factor of ten. Consider `CC(C)[C@H](NC(=O)c1nn(Cc2ccc(F)cc2)c2ccccc12)C(N)=O`, for which the pEC50 is 8.68.
